The results in this text go back to patent US20230414723A1, “ENHANCED HYT-INDUCED PROTEIN DEGRADATION USING LIPID NANOPARTICLE DELIVERY” (Trustees of Tufts College, priority 2020, published 2023).

One experiment addresses T1, BRD4 (Homo sapiens, UniProt O60885).
T1 construct: HeLa cells, which express BRD4 at high levels, were selected as a model cell line; host or cells: HeLa
Briefly: BRD4 degradation in HeLa cells by Western blot. The format is cell-based. The procedure:
80-O14B LNP was formulated by directly dissolving the lipidoid into 25 mM sodium acetate solution (pH=5.5). 80-O14B LNP was added into the solution with the final concentration of 5 μg/mL and the solution was incubated at room temperature for another 15 min before administration. Pre-fused ARV-825 or SARD279 were prepared through the similar route.
Generally, Western blots was carried out on the Invitrogen Novex SureLock Mini-Cell system. Supplies for the system were bought from Invitrogen (Carlsbad, CA, USA) […] sample was loaded onto 4-12% bis-tris protein gel and the gel was run with a stable voltage of 120 V for 80 min. Then the gel was cut according to the protein ladder and transferred to PVDF membrane with a stable current of 250 mA for 3 h. The membrane was blocked by 5% skimmed milk for 1 h at room temperature and then incubated with primary antibody overnight. After 3 cycles of washing by TBST (tris-buffered saline, 0.1% tween 20), the membrane was incubated with secondary antibody for another 1 h and then washed by TBST for 3 times. The final membrane was then imaged using enhanced chemiluminescence (ECL) substrate.
1×10^6 HeLa cells were cultured in 6 well plate for 24 h before administration. […] After 24 h incubation, the proteins were isolated from HeLa cells using the radio-immunoprecipitation assay (RIPA) lysis buffer and quantitated by bicinchoninic acid assay (BCA assay). Then the proteins were diluted to the sample concentration using NuPAGE LDS sample buffer (Invitrogen, Carlsbad, CA, USA) and denatured at 95° C. for 5 min. The study of targeted protein degradation by ARV-825 and SARD279 were carried out using similar protocols.

The target in a further experiment is T2, androgen receptor (AR) (Homo sapiens, UniProt P10275, T878A).
T2 construct: The study of targeted protein degradation by ARV-825 and SARD279 were carried out using similar protocols; host or cells: LNCaP
T2 sequence (P10275 1-920 T878A): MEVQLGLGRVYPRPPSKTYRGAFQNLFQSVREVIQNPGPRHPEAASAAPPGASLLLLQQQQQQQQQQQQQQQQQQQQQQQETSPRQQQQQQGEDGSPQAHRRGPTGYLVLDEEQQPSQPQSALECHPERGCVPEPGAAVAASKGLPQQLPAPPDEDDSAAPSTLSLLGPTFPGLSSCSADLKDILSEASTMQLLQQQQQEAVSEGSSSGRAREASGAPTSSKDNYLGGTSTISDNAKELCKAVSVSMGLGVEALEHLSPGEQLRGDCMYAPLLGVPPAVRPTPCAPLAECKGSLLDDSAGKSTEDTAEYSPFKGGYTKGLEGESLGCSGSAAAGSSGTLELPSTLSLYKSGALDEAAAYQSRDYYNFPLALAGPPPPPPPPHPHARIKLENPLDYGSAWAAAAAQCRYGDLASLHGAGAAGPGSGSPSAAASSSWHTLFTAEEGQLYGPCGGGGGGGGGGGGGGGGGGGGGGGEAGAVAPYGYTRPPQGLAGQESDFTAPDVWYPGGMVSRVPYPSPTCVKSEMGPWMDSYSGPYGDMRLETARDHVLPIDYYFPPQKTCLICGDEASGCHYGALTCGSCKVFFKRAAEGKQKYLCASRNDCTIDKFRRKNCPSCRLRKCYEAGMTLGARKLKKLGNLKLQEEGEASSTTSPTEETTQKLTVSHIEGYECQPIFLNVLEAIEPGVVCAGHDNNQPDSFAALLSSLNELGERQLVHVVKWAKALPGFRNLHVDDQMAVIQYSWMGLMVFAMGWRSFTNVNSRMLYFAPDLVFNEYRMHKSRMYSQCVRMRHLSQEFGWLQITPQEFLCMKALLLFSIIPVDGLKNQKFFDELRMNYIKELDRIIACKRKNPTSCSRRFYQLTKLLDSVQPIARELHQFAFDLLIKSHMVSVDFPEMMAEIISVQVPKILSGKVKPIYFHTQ
Briefly: AR degradation in LNCaP cells by Western blot. Type of experiment: cell-based. The following applies: 0.125 to 0.5 μM.

Consider `Cc1ncsc1-c1ccc([C@H](C)NC(=O)[C@@H]2C[C@@H](O)CN2C(=O)[C@@H](NC(=O)COCCCOCCNC(=O)C[C@@H]2N=C(c3ccc(Cl)cc3)c3c(sc(C)c3C)-n3c(C)nnc32)C(C)(C)C)cc1` [ARV-771], for which the BRD4 levels remained entry on BRD4 (24 h, 25 and 50 nM) is listed as “more than 80%”. Also, the “BRD4 degradation, time-dependent” value on BRD4 (after 8 h) is given as “Small amounts of degradation”; at BRD4 (after 24 h) it was “total degradation”; on BRD4 (first 6 h), “no significant degradation”.
Take `CC1(C)C(=O)N(c2ccc(C#N)c(C(F)(F)F)c2)C(=S)N1CCCC(=O)NCCOCCOC(=O)CC12CC3CC(CC(C3)C1)C2` [SARD279]: at androgen receptor (AR), the AR degradation entry is “no AR degradation”.
